Read-outs that look alike come from different tables or passages of the source.
Key:
[1] = Time to resolution (TTR) of AEs after treatment interruption or discontinuation, pooled cohorts; type: in vivo, human
Protocol: Five of the most common AEs associated with axitinib treatment were assessed: diarrhea; fatigue; hypertension; nausea; and palmar-plantar erythrodysesthesia syndrome (PPE). Incidences of treatment-emergent AEs were taken from the full published articles for each study. AEs were classified and graded per the Common Terminology Criteria for Adverse Events version 3.0 or the National Cancer Institute Common Terminology Criteria for Adverse Events version 4.03, as used in each individual study. Incidences of AEs were reported for any grade and for grade ≥3.

[2] = cited from earlier work
[3] = Action taken for each occurrence of each AE by pooled treatment cohort; conditions: occurrences of the AE
Protocol: To determine the TTR for each of the AEs, data were pooled for different treatment cohorts as follows: patients who received axitinib monotherapy (axitinib monotherapy cohort); patients who received axitinib in combination with IO therapy (axitinib+10 cohort); and patients in comparator treatment arms who received another TKI as monotherapy, i.e., sorafenib or sunitinib (other TKI cohort). TTR was calculated for all causality, treatment-emergent AEs. For each AE reported for patients in each pooled cohort, the action taken on presentation of the AE was documented. […] TTR was determined for AEs of any grade and for grade Data were descriptive only; no statistical comparisons were made.
Action taken was determined as ‘not applicable’ when the associated drug was already permanently discontinued when the AE occurred.

[4] = AEs of any grade, after treatment interruption or discontinuation
[5] = AEs of grade 3 or higher (FIG. 2)
[6] = drug already permanently discontinued

## CNC(=O)c1ccccc1Sc1ccc2c(/C=C/c3ccccn3)n[nH]c2c1 [Axitinib, axitinib]
[1]; [4]
  median (IQR) TTR, PPE: 3 (3-5) days
  median (IQR) TTR, diarrhea: 3 (1-6) days
  median (IQR) TTR, hypertension: 1 (1-3) days
  median (IQR) TTR, nausea: 3 (1-7) days
[1]; AEs of any grade, after treatment interruption or discontinuation, listed as INLYTA monotherapy
  median (IQR) TTR, fatigue: 8 days
[1]; AEs of any grade, after treatment interruption or discontinuation, listed as axitinib monotherapy
  median (IQR) TTR, fatigue: 8 (4-16) days
[1]; [5]
  median (IQR) TTR, PPE: 3 (1-6) days
  median (IQR) TTR, diarrhea: 3 (2-6) days
  median (IQR) TTR, hypertension: 2 (1-8) days
  median (IQR) TTR, nausea: 4 (2-15) days
[1]; AEs of grade 3 or higher (FIG. 2), listed as INLYTA monotherapy
  median (IQR) TTR, fatigue: 8 days
[1]; AEs of grade 3 or higher (FIG. 2), listed as axitinib monotherapy
  median (IQR) TTR, fatigue: 8 (5-16) days
[1]; all grade
  Median TTR for adverse reactions, except for fatigue (range of medians): 1 to 3 days
[1]; grade 3 or higher
  Median TTR for adverse reactions, except for fatigue (range of medians): 2 to 4 days
[2]; after a single 5 mg dose
  half-life: 2.5 to 6.1 h
[3]
  Diarrhea, action taken: Stopped temporarily and reduced: 0 n
  Diarrhea, action taken: Unknown: 0 n
  Fatigue, action taken: Stopped temporarily and reduced: 0 n
  Fatigue, action taken: Unknown: 0 n
  Hypertension, action taken: Stopped temporarily and reduced: 0 n
  Hypertension, action taken: Unknown: 0 n
  Nausea, action taken: Permanently discontinued: 0 n
  Nausea, action taken: Stopped temporarily and reduced: 0 n
  Nausea, action taken: Unknown: 0 n
  PPE, action taken: Stopped temporarily and reduced: 0 n
  PPE, action taken: Unknown: 0 n
[3]; [6]
  Diarrhea, action taken: Not applicable: 0 n
  Fatigue, action taken: Not applicable: 0 n
  Hypertension, action taken: Not applicable: 0 n
  Nausea, action taken: Not applicable: 0 n
  PPE, action taken: Not applicable: 0 n

## COc1cc2nccc(Oc3ccc(NC(=O)NC4CC4)c(Cl)c3)c2cc1C(N)=O [lenvatinib]
[2]; in vivo
  half-life: ~28 h

## COc1cc2nccc(Oc3ccc(NC(=O)C4(C(=O)Nc5ccc(F)cc5)CC4)cc3)c2cc1OC [cabozantinib]
[2]; in vivo
  half-life: ~99 h

## CNC(=O)c1cc(Oc2ccc(NC(=O)Nc3ccc(Cl)c(C(F)(F)F)c3)cc2)ccn1 [Sorafenib, sorafenib]
[2]; in vivo
  half-life: 25 to 48 h

## CCN(CC)CCNC(=O)c1c(C)[nH]c(/C=C2\C(=O)Nc3ccc(F)cc32)c1C [Sunitinib, sunitinib]
[2]; in vivo
  half-life: 40 to 60 h

Source: patent US20220168293A1, “TIME TO RESOLUTION OF AXITINIB-RELATED ADVERSE EVENTS” (PFIZER INC., priority 2020, published 2022)
